Patent US10780092B2, “Fused pyrazine derivatives useful as soluble guanylate cyclase stimulators” (Merck Sharp & Dohme Corp., priority 2016, dated 2020)

Key:
[1] = molecular target: human recombinant sGC enzyme (Homo sapiens (Human), UniProt Q02108+Q02153); experiment: SEC competition binding assay with [3H] Compound B radioligand; details: displacement of 1.6 nM [3H] Compound B, 24 h at 37° C.
Method in brief: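 Recombinant human sGC incubated with 1.6 nM [3H] Compound B and test compounds for 24 h at 37° C. Buffer: 50 mM triethanolamine pH 7.4, 3 mM MgCl2, 0.025% BSA, 2 mM DTT, 300 μM DETA/NO, 400 μM GTP, 1% DMSO. Bound ligand separated by gel filtration and counted by scintillation; non-specific binding with 1 μM Compound B; Ki from one-site fit.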

sGC α1/β1 heterodimer = sGC α1/β1 heterodimer (Homo sapiens (Human), UniProt Q02108+Q02153); experiment: Cell-based sGC functional assay (CASA assay), cGMP by HTRF; details: CHO-K1/sGC cells; for Emax: CHO-K1, cGMP production as percentage of maximum of compound A (set to 100%), read-out: % Activation; for EC50: inflection point of cGMP production, 4P fit, read-out: IP
Method in brief: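 CHO-K1 cells stably expressing human sGC α1/β1, with 0.5 mM IBMX, pre-incubated ±1 μM DETA-NO 30 min at 25° C, then compound 1 hr at 37° C (2.5% DMSO). cGMP by HTRF; activation as % of reference activator maximum, 4P fit giving inflection point and maximum […].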

[2] = tested on: hypoxia-induced pulmonary hypertension in rat; experiment: Acute efficacy in hypoxia-induced pulmonary hypertension in rat following intratracheal (IT) administration; assay type: in vivo; details: decrease in SBP at dose giving decrease in PAP ≥15 mmHg
From the text: Acute Efficacy in Hypoxia-Induced Pulmonary Hypertension in Rat Following Intratracheal (IT) Administration Charles River Sprague-Dawley (CD) male rats weighing approximately 350 g were implanted with HD-S21 dual pressure telemetry transmitters (Data Sciences International (DSI)) into the pulmonary artery and femoral artery. This transmitter enables simultaneous measurement of both pulmonary and systemic hemodynamic parameters in the same animal. After a 7-10 day post-operative recovery period, animals were subjected to a normobaric hypoxic (10% oxygen) environment using a Higher Peak Mountain Air Generator (MAG-10) connected to a modified rodent cage via a fitted inlet port. Oxygen (at 10%), temperature, humidity, and CO2 were controlled within normal range and animals were maintained on a 12 hour light-dark cycle with ad libitum access to food and water. After two weeks exposure to 10% O2 hypoxic environment, systolic pulmonary arterial pressure readings increased from ˜25 mmHg to greater than 50 mmHg. Using a 48 hour baseline average, animals with readings between 50-110 mmHg (standard deviation of less than 10 mmHg) and minimal changes in systolic systemic blood pressure were enrolled for study. Animals were utilized for up to 2 studies per week for 4 weeks with a minimum of 2 days washout between doses of test agent. Compound or vehicle was administered intra-tracheally under light isoflurane anesthesia (5% in oxygen; flow rate 2.0 L/min for 3 minutes). Once anesthetized, rats were placed on an angled intubation stand in supine position and the trachea visualized using a small laryngoscope. Animals then received either 0.5 mL/kg of vehicle or 0.5 mL/kg vehicle containing compound intra-tracheally delivered via microsprayer by use of a Penn-Century Microsprayer® needle 3″ (Model IA-1B-GP) attached to a 1 mL high pressure syringe (Penn Century-Model B—SYR-PL1000) (Penn-Century, Philadelphia, Pa.). The Microsprayer® tip was inserted into the trachea up to the point at which the bend in the needle is close to the tip of the snout, which positions the tip of the Microsprayer® in front of the carina (bifurcation of trachea at the bronchi). After dose delivery the animal is placed on its back in the home cage for recovery. Hemodynamic measurements were continuously recorded and readings consolidated to hourly moving averages. Each animal received a vehicle on Day 1 followed by vehicle or test agent on Day 2. Change from vehicle baseline was calculated by subtracting the hourly Day 1 vehicle response from the hourly Day 2 response and treatment group data was expressed as mean±SEM. Decreases of systolic blood pressure (SBP) and systolic pulmonary arterial pressure (PAP) were measured at a particular IT dose (mpk milligrams per kilogram) for the following Example compounds. Compounds in the Table 13 achieved a minimum decrease in PAP of ≥15 mmHg for the corresponding decrease in SBP listed.

Ki [1] [nM] | Emax (sGC α1/β1 heterodimer) [%] | EC50 (sGC α1/β1 heterodimer) [nM] | Structure (SMILES) | Category (decrease in SBP) ([2]; IT dose 0.3 mpk) | Category (decrease in SBP) ([2]; IT dose 0.03 mpk) | Category (decrease in SBP) ([2]; IT dose 0.01 mpk)
8.88 | 93 | 202 | CC1(c2cccc(O)c2)C(=O)Nc2nc(-c3cn4ncnc4c(CCC(F)(F)C(F)(F)F)n3)nc(N)c21 (stereo not shown) [Example 78-B, 4-Amino-5-(3-hydroxyphenyl)-5-methyl-2-(8-(3,3,4,4,4-pentafluorobutyl)-[1,2,4]triazolo[1,5-a]pyrazin-6-yl)-5,7-dihydro-6H-pyrrolo[2,3-d]pyrimidin-6-one] | C (decrease in SBP >10 mmHg) |  | 
8.55 | 94 | 109 | CC1(c2ccc(O)c(F)c2)C(=O)Nc2nc(-c3cn4ccnc4c(CCC(F)(F)C(F)(F)F)n3)nc(N)c21 (racemic) [Example 117-B, 4-Amino-5-(3-fluoro-4-hydroxyphenyl)-5-methyl-2-(8-(3,3,4,4,4-pentafluorobutyl)-imidazo[1,2-a]pyrazin-6-yl)-5,7-dihydro-6H-pyrrolo[2,3-d]pyrimidin-6-one] | C (decrease in SBP >10 mmHg) |  | 
0.219 | 98 | 2080 | CC1(c2ccc(C(F)(F)F)c(O)c2)C(=O)Nc2nc(-c3cn4ccnc4c(Cc4ccccc4F)n3)nc(N)c21 (stereo not shown) [Example 3-B, 4-Amino-2-{8-[(2-fluorophenyl)methyl]imidazo[1,2-a]pyrazin-6-yl}-5-[3-hydroxy-4-(trifluoromethyl)phenyl]-5-methyl-5,7-dihydro-6H-pyrrolo[2,3-d]pyrimidin-6-one] |  | A (decrease in SBP 0-5 mmHg) | 
0.291 | 80 | 67 | CC1(c2ccc(O)c(F)c2)C(=O)Nc2nc(-c3cn4ccnc4c(Cc4ccc(F)cc4)n3)nc(N)c21 (stereo not shown) [Example 29-B, 4-Amino-5-(3-fluoro-4-hydroxyphenyl)-2-{8-[(4-fluorophenyl)methyl]imidazo[1,2-a]pyrazin-6-yl}-5-methyl-5,7-dihydro-6H-pyrrolo[2,3-d]pyrimidin-6-one] |  | C (decrease in SBP >10 mmHg) | 
0.095 | 118 | 226 | CC1(c2ccc(Cl)c(O)c2)C(=O)Nc2nc(-c3cn4ccnc4c(Cc4cccc(F)c4)n3)nc(N)c21 (stereo not shown) [Example 1-A, 4-Amino-5-(4-chloro-3-hydroxyphenyl)-2-{8-[(3-fluorophenyl)methyl]imidazo[1,2-a]pyrazin-6-yl}-5-methyl-5,7-dihydro-6H-pyrrolo[2,3-d]pyrimidin-6-one] |  |  | A (decrease in SBP 0-5 mmHg)
0.213 | 108 | 138 | CC1(c2cc(O)c(Cl)cn2)C(=O)Nc2nc(-c3cn4ncnc4c(CC4CCCCC4)n3)nc(N)c21 (stereo not shown) [Example 105-B, 4-Amino-5-(5-chloro-4-hydroxypyridin-2-yl)-2-(8-(cyclohexylmethyl)-[1,2,4]triazolo[1,5-a]pyrazin-6-yl)-5-methyl-5,7-dihydro-6H-pyrrolo[2,3-d]pyrimidin-6-one] |  | B (decrease in SBP 5-10 mmHg) | 
0.374 | 98 | 683 | CC1(c2cc(O)c(Cl)cn2)C(=O)Nc2nc(-c3cn4ccnc4c(CC4CCCCC4)n3)nc(N)c21 (stereo not shown) [Example 93-B, 4-Amino-5-(5-chloro-4-hydroxypyridin-2-yl)-2-(8-(cyclohexylmethyl)imidazo[1,2-a]pyrazin-6-yl)-5-methyl-5,7-dihydro-6H-pyrrolo[2,3-d]pyrimidin-6-one] |  | A (decrease in SBP 0-5 mmHg) | 
0.156 | 68 | 144 | CC1(c2ccc(Cl)c(O)c2)C(=O)Nc2nc(-c3cn4ccnc4c(CC4CCCCC4)n3)nc(N)c21 (stereo not shown) [Example 14-A, 4-Amino-5-(4-chloro-3-hydroxyphenyl)-2-(8-(cyclohexylmethyl)imidazo[1,2-a]pyrazin-6-yl)-5-methyl-5,7-dihydro-6H-pyrrolo[2,3-d]pyrimidin-6-one] |  |  | A (decrease in SBP 0-5 mmHg)
0.283 | 141 | 433 | CC1(c2ccc(O)c(Cl)c2)C(=O)Nc2nc(-c3cn4ccnc4c(Cc4ccccc4F)n3)nc(N)c21 (stereo not shown) [Example 28-B, 4-Amino-5-(3-chloro-4-hydroxyphenyl)-2-{8-[(2-fluorophenyl)methyl]imidazo[1,2-a]pyrazin-6-yl}-5-methyl-5,7-dihydro-6H-pyrrolo[2,3-d]pyrimidin-6-one] |  |  | B (decrease in SBP 5-10 mmHg)
0.117 | 72 | 316 | CC1(c2ccc(Cl)c(O)c2)C(=O)Nc2nc(-c3cn4ccnc4c(Cc4ccccc4F)n3)nc(N)c21 (stereo not shown) [Example 8-A, 4-Amino-5-(4-chloro-3-hydroxyphenyl)-2-{8-[(2-fluorophenyl)methyl]imidazo[1,2-a]pyrazin-6-yl}-5-methyl-5,7-dihydro-6H-pyrrolo[2,3-d]pyrimidin-6-one] |  |  | B (decrease in SBP 5-10 mmHg)
